Experimental data as given in patent US5625046A, “Hydroxyl projecting groups for organic synthesis” (King's College London, priority 1986, dated 1997).

Experiments:
[1] = removal of 2'-protecting groups by acidic hydrolysis at 25° C. (HPLC); type: physicochemical; details: for t0.99 (calculated time for 99% removal of the 2'-protecting group) / t1/2 (half-time): 25° C.; for t1/2 (half-time): hydrochloric acid or 0.2M glycine hydrochloride buffer; for rate of hydrolysis, times faster at pH 1.0 than at pH 3.0: pH 1.0 vs pH 3.0
Protocol: The removal of 2'-protecting groups by acidic hydrolysis at 25° C. was then investigated. Substrates as indicated below (ca 0.5-1.0 mg) were dissolved in 3.0 ml of hydrochloric acid or 0.2M glycine hydrochloride buffer at the specified pH. Aliquots (0.2 ml) of the reaction solutions were removed after suitable intervals of time, neutralized with triethylammonium bicarbonate and analyzed by HPLC (Jones "APEX ODS" column).
(b) t0.99 =calculated time for 99% removal of the 2'-protecting group.

[2] = concomitant removal of 2'-O-Ctmp group during removal of 5'-O-(9-phenylxanthen-9-yl) group (trifluoroacetic acid/pyrrole in dichloromethane); type: physicochemical; details: in the time required for complete removal of the 5'-O-(9-phenylxanthen-9-yl) group, 5.5 mol. equiv. trifluoroacetic acid, 16.5 mol. equiv. pyrrole, room temperature
Protocol: Following the above scheme, the latter compound was then converted by the conventional two-step procedure into the fully-protected dinucleoside phosphate in ca 83% overall yield. When a 0.025M solution of the fully-protected dinucleoside phosphate in dichloromethane was treated with 5.5 mol. equiv. of trifluoroacetic acid and 16.5 mol. equiv. of pyrrole for 30 seconds at room temperature, no starting material remained and the partially-protected dinucleoside phosphate was isolated from the products In 95.5% yield. When the acid treatment of the fully-protected dinucleoside phosphate was extended to 30 minutes under the same conditions, the partially-protected dinucleoside phosphate was isolated in 85% yield. From such results, it may be estimated that less than 0.2% concomitant removal of the 2'-O-Ctmp group occurs in the time required for the complete removal of the 5'-O-(9-phenylxanthen-9-yl) protecting group.

SMILES | stability of protecting group for the desired purposes (in words) [1] | t0.99 (calculated time for 99% removal of the 2'-protecting group) ([1]; pH 1.0) [min] | t1/2 (half-time) ([1]; pH 1.0) [min] | t0.99 (calculated time for 99% removal of the 2'-protecting group) ([1]; pH 2.0) [min] | t1/2 (half-time) ([1]; pH 2.0) [min] | rate of hydrolysis, dependence on pH ([1]; between pH 0.5 and 1.5) | t0.99 (calculated time for 99% removal of the 2'-protecting group) ([1]; pH 0.5) [min] | t1/2 (half-time) ([1]; pH 0.5) [min] | rate of hydrolysis, times faster at pH 1.0 than at pH 3.0 [1] [times] | t0.99 (calculated time for 99% removal of the 2'-protecting group) ([1]; pH 1.5) [min] | t1/2 (half-time) ([1]; pH 1.5) [min] | t0.99 (calculated time for 99% removal of the 2'-protecting group) ([1]; pH 2.5) [min] | t1/2 (half-time) ([1]; pH 2.5) [min] | t0.99 (calculated time for 99% removal of the 2'-protecting group) ([1]; pH 3.0) [min] | t1/2 (half-time) ([1]; pH 3.0) [min] | t0.99 (calculated time for 99% removal of the 2'-protecting group) ([1]; pH 3.5) [min] | t1/2 (half-time) ([1]; pH 3.5) [min] | concomitant removal of the 2'-O-Ctmp group [2] | effect of vicinal phosphotriester group on acid-catalyzed hydrolysis of Ctmp (in words) [1] | rate of hydrolysis, dependence on pH (in words) ([1]; with decreasing pH)
COC1(O[C@@H]2[C@H](O)[C@@H](CO)O[C@H]2n2ccc(=O)[nH]c2=O)CCN(c2ccccc2)CC1 [reference compound] | too stable | 3300 | 498 | 4380 | 660 |  |  |  |  |  |  |  |  |  |  |  |  |  |  | 
COC1(O[C@@H]2[C@H](O)[C@@H](CO)O[C@H]2n2ccc(=O)[nH]c2=O)CCN(c2ccc(C)cc2Cl)CC1 |  | 236 | 35.5 | 272 | 41 | virtually unchanged | 223 | 33.5 | ~2.25 | 233 | 35 | 345 | 52 | 532 | 80 | 1120 | 168 |  |  | 
COC1(O[C@@H]2[C@H](OP(=O)(OC[C@H]3O[C@@H](n4ccc(=O)[nH]c4=O)[C@H](OC(C)=O)[C@@H]3OC(C)=O)Oc3ccccc3Cl)[C@@H](COC3(c4ccccc4)c4ccccc4Oc4ccccc43)O[C@H]2n2ccc(=O)[nH]c2=O)CCN(c2ccc(C)cc2Cl)CC1 (some centres unmarked) [fully-protected dinucleoside phosphate] |  |  |  |  |  |  |  |  |  |  |  |  |  |  |  |  |  | less than 0.2% |  | 
COC1(O[C@@H]2[C@H](OP(=O)(O)OC[C@H]3O[C@@H](n4ccc(=O)[nH]c4=O)[C@H](O)[C@@H]3O)[C@@H](CO)O[C@H]2n2ccc(=O)[nH]c2=O)CCN(c2ccc(C)cc2Cl)CC1 |  |  |  | 143 | 21.5 |  |  |  |  |  |  | 156 | 23.5 |  |  |  |  |  | facilitates the acid-catalyzed hydrolysis | 
COC1(O[C@@H]2[C@H](O)[C@@H](CO)O[C@H]2n2ccc(=O)[nH]c2=O)CCOCC1 [reference compound] |  | 6 | 0.9 | 136 | 20.5 |  |  |  | 140 |  |  |  |  | 837 | 126 |  |  |  |  | increases sharply with decreasing pH
